Four molecules from patent US20090275626A1, “PHARMACEUTICAL COMPOSITION FOR PREVENTION OR TREATMENT OF NEUROGENIC PAIN” (KISSEI PHARMACEUTICAL CO., LTD., priority 2005, published 2009) can be followed below.

“Also recorded” adds a separate entry of the source.

Common to all, as to type: in vivo, rat
The test system of test [1] is STZ-induced diabetic rats. In words: Nociceptive threshold in STZ-induced diabetic rats, repeated oral administration (Test Example 1, Randall-Selitto method). The note with it: Compound 3 hydrochloride 10 mg/kg oral twice a day, 14-day repeated administration, 1 hour after final administration, right hind-paw pressure, vs Control group. The procedure: STZ (50 mg/kg) was administered intravenously to 7-week old male SD stain rats to induce diabetes mellitus. From the following day of the STZ administration, test article (Compound 3 hydrochloride) was administered orally twice a day, repeatedly (10 rats in each group). Normal and Control groups were administered the medium (0.5% methylcellulose). The nociceptive threshold against pressure stimulation given to the right hind-paw of rats after 2 weeks administration (1 hour after the final administration) of test article was measured by Randall-Selitto method, and compared with Control group.

The test system of another test is Seltzer model rats. Description: Nociceptive threshold in Seltzer model rats (Test Example 3, Randall-Selitto method). The following applies: for nociceptive threshold of the nerve ligation group: 1 hour after final administration; for analgesic effect compared with carbamazepine: Compounds 1, 2: 1 mg/kg s.c., Compound 3 hydrochloride: 10 mg/kg oral, carbamazepine 10 mg/kg oral, 2 weeks. An excerpt:
Fifty-eight, 7-week old male SD rats were anesthetized with pentobarbital (Nembutal injection (a registered trademark)), and the right sciatic nerve was exposed. In the nerve ligation group (48 rats), half of the dorsal portion of the nerve was ligated using 6-0 nylon suture. In Normal group (10 rats), the sciatic nerve was only exposed. From the following day of the model preparation, each test article (Compound 1, Compound 2 or Compound 3 hydrochloride) was repeatedly administered once a day for 2 weeks. Compound 1 (10 rats) and Compound 2 (10 rats) were administered subcutaneously, and Compound 3 hydrochloride (9 rats) and carbamazepine (10 rats) were administered orally. Control group (9 rats) and Normal group were subcutaneously administered physiological saline. One hour after the final administration of the test articles, the nociceptive threshold against pressure stimulation given to the right hind-paw of rats was measured by Randall-Selitto method, and compared with Control group.

Test [2] has as its system STZ-induced diabetic rats. In words: Nociceptive threshold in STZ-induced diabetic rats, repeated subcutaneous administration over 10 weeks (Test Example 2, Randall-Selitto method). The following applies: for nociceptive threshold after 14-day repeated administration: 0.1, 0.3 and 1 mg/kg subcutaneous once a day, right hind-paw pressure, vs Control group; for neuroprotective effects: concluded from controlled changes of nociceptive threshold over 10 weeks (early hyperalgesia, late hypoalgesia); for changes of the nociceptive threshold over 10 weeks after STZ administration (repeated-measures analysis of variance vs Control group): subcutaneous once a day, measured every 2 weeks until 10th week, P<0.05. The method, then:
STZ (50 mg/kg) was administered intravenously to male SD stain rats to induce diabetes mellitus. From the following day of the STZ administration, test article (Compound 1 or 2) was administered subcutaneously once a day, repeatedly. Normal and Control groups were administered subcutaneously physiological saline (9-10 rats in each group). Before the STZ administration and every 2 weeks until the 10th week after STZ administration, the nociceptive threshold against pressure stimulation given to the right hind-paw of rats was measured by Randall-Selitto method, and compared with Control group.
The changes of the nociceptive thresholds (mean±SE) in each group over 10 weeks after administration of each drug are shown in FIG. 2 and FIG. 3.

Setting [3] is: 10 mg/kg oral once a day for 2 weeks.
Setting [4] is: 1 mg/kg subcutaneous once a day for 2 weeks.

On to `Cc1cc(-c2ccc(C(=O)O)c(C(C)C)c2)cc(C)c1OCCN[C@@H](C)[C@H](O)c1ccc(O)cc1` [Compound 3, 4′-[2-[(1S,2R)-2-hydroxy-2-(4-hydroxyphenyl)-1-methylethylamino]ethoxy]-3-isopropyl-3′,5′-dimethylbiphenyl-4-carboxylic acid], for which the nociceptive threshold result in test [1] is “increased remarkably”. Further, the “nociceptive threshold of the nerve ligation group” value in the test on Seltzer model rats (setting [3]) was “significantly improved”. In addition, in the test on Seltzer model rats, the “analgesic effect compared with carbamazepine” value is recorded as “comparable to that of carbamazepine”.
`C[C@H](Cc1ccc(OCC(=O)[O-])cc1)NC[C@H](O)c1cccc(Cl)c1.[Na+]` [Compound 1]: in test [2], the “nociceptive threshold after 14-day repeated administration” value is given as “increased clearly in a dose-dependent manner at 0.3 mg/kg or above” and the neuroprotective effects entry is “have neuroprotective effects”. For the same molecule, the “changes of the nociceptive threshold over 10 weeks after STZ administration (repeated-measures analysis of variance vs Control group)” value in test [2] (sodium salt) is “significant differences in comparison with Control group; also recorded: significant difference”. Also, in the test with Seltzer model rats (setting [4]), the “nociceptive threshold of the nerve ligation group” value is on record as “significantly improved”. For the same molecule, the “analgesic effect compared with carbamazepine” value in the test on Seltzer model rats was “comparable to that of carbamazepine”.
`NC(=O)N1c2ccccc2C=Cc2ccccc21` [carbamazepine, reference compound]: the “nociceptive threshold of the nerve ligation group” value in the test with Seltzer model rats (setting [3]) is reported as “analgesic effect”.
On to `C[C@H](Cc1ccc2c(c1)OC(C(=O)[O-])(C(=O)[O-])O2)NC[C@H](O)c1cccc(Cl)c1.[Na+].[Na+]` [Compound 2], for which, in test [2], the “nociceptive threshold after 14-day repeated administration” value was “increased clearly in a dose-dependent manner at 0.3 mg/kg or above” and the neuroprotective effects entry is “have neuroprotective effects”. The “changes of the nociceptive threshold over 10 weeks after STZ administration (repeated-measures analysis of variance vs Control group)” value in test [2] (disodium salt) is given as “significant differences in comparison with Control group; also recorded: significant difference”. Besides, the “nociceptive threshold of the nerve ligation group” value with Seltzer model rats (setting [4]) is reported as “significantly improved”. Also, the “analgesic effect compared with carbamazepine” value in the test with Seltzer model rats is “comparable to that of carbamazepine”.
